Measured values taken from patent US20240076285A1, “COMPOUNDS AND COMPOSITIONS FOR TREATING CONDITIONS ASSOCIATED WITH STING ACTIVITY” (IFM Due, Inc., priority 2020, published 2024).

What follows are compounds tested against T1, hSTING (Homo sapiens, UniProt Q86WV6, G230A/H232R/R293Q/R71H) (assay: STING reporter assay in THP1-Dual KO-IFNAR2 cells (2'3'cGAMP stimulation, luciferase reporter)). Conditions: 15 μM 2'3'cGAMP, 24 h, class symbols.
T1 construct: host or cells: THP1-Dual KO-IFNAR2 cells
T1 sequence (Q86WV6 whole entry R71H/G230A/H232R/R293Q): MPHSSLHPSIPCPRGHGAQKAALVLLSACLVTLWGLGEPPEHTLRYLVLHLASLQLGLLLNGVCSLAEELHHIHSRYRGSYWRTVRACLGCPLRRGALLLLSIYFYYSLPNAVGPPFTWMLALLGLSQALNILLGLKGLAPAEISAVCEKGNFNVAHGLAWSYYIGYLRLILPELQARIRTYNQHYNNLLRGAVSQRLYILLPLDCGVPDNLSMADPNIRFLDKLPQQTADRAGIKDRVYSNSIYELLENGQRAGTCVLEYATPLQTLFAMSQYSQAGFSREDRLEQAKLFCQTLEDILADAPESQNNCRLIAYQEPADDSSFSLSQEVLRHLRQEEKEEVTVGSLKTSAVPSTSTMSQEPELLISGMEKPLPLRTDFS
Type: cell-based
Method: STING pathway activation by the compounds described herein was measured using THP1-Dual™ cells (KO-IFNAR2).
THP1-Dual™ KO-IFNAR2 Cells (obtained from invivogen) were maintained in RPMI, 10% FCS, 5 ml P/S, 2 mM L-glut, 10 mM Hepes, and 1 mM sodium pyruvate. Compounds were spotted in empty 384 well tissue culture plates (Greiner 781182) by Echo for a final concentration of 0.0017-100 μM. Cells were plated into the TC plates at 40 μL per well, 2×10E6 cells/mL. For activation with STING ligand, 2′3′cGAMP (MW 718.38, obtained from Invivogen), was prepared in Optimem media.
The following solutions were prepared for each 1×384 plate: • Solution A: 2 mL Optimem with one of the following stimuli: • 60 μL of 10 mM 2′3′cGAMP→150 μM stock • Solution B: 2 mL Optimem with 60 μL Lipofectamine 2000→Incubate 5 min at RT
2 mL of solution A and 2 ml Solution B was mixed and incubated for 20 min at room temperature (RT). 20 μL of transfection solution (A+B) was added on top of the plated cells, with a final 2′3′cGAMP concentration of 15 μM. The plates were then centrifuged immediately at 340 g for 1 minute, after which they were incubated at 37° C., 5% CO2, >98% humidity for 24 h. Luciferase reporter activity was then measured. EC50 values were calculated by using standard methods known in the art.
Luciferase reporter assay: 10 μL of supernatant from the assay was transferred to white 384-plate with flat bottom and squared wells. One pouch of QUANTI-Luc™ Plus was dissolved in 25 mL of water. 100 μL of QLC Stabilizer per 25 mL of QUANTI-Luc™ Plus solution was added. 50 μL of QUANTI-Luc™ Plus/QLC solution per well was then added. Luminescence was measured on a Platereader (e.g., Spectramax I3X (Molecular Devices GF3637001)).
Luciferase reporter activity was then measured. EC50 values were calculated by using standard methods known in the art.
`N#Cc1cc(Nc2ccc(OCC(F)(F)F)nc2)cc(Nc2ccc3cc[nH]c3c2)n1` [Compound 127, 6-[(1H-indol-6-yl)amino]-4-{[6-(2,2,2-trifluoroethoxy)pyridin-3-yl]amino}pyridine-2-carbonitrile] showed an EC50 of 200 to 1000 nM. In the case of `COc1cc(Cl)cc(Nc2cc(C#N)nc(Nc3ccc4cc[nH]c4c3)c2)c1` [Compound 112, 4-[(3-chloro-5-methoxyphenyl)amino]-6-[(1H-indol-6-yl)amino]pyridine-2-carbonitrile], the EC50 is reported as 200 to 1000 nM. For `N#Cc1cc(N2CCC(Oc3ccccc3)CC2)cc(Nc2ccc3cc[nH]c3c2)n1` [Compound 119, 6-[(1H-indol-6-yl)amino]-4-(4-phenoxypiperidin-1-yl)pyridine-2-carbonitrile], the EC50 was 200 to 1000 nM. With `N#Cc1cc(Nc2cc(Cl)cc(Cl)c2)cc(Nc2ccc3cc[nH]c3c2)n1` [Compound 136, 4-[(3,5-dichlorophenyl)amino]-6-[(1H-indol-6-yl)amino]pyridine-2-carbonitrile] the EC50 was 200 to 1000 nM. `N#Cc1cc(Nc2ccc3c(c2)CCC3)cc(Nc2ccc3cc[nH]c3c2)n1` [Compound 142, 4-[(2,3-dihydro-1H-inden-5-yl)amino]-6-[(1H-indol-6-yl)amino]pyridine-2-carbonitrile] gave an EC50 of 200 to 1000 nM. `N#Cc1cc(N2CCOCC2)cc(Nc2cc(Cl)c3cc[nH]c3c2)n1` [Compound 161, 6-[(4-chloro-1H-indol-6-yl)amino]-4-(morpholin-4-yl)pyridine-2-carbonitrile] showed an EC50 of 1000 to 5000 nM. In the case of `N#Cc1cc(Nc2cncc(C(F)(F)F)c2)cc(Nc2cc(Cl)c3cc[nH]c3c2)n1` [Compound 187, 6-[(4-chloro-1H-indol-6-yl)amino]-4-{[5-(trifluoromethyl)pyridin-3-yl]amino}pyridine-2-carbonitrile], the EC50 is reported as 200 to 1000 nM. `N#Cc1cc(Nc2ccc3c(c2)C(=O)NC3)cc(Nc2ccc3cc[nH]c3c2)n1` [Compound 123, 6-[(1H-indol-6-yl)amino]-4-[(3-oxo-2,3-dihydro-1H-isoindol-5-yl)amino]pyridine-2-carbonitrile] was tested, and the EC50 was 5000 to 100000 nM. `N#Cc1cc(Nc2ccc(Cl)c(Cl)c2)cc(Nc2ccc3cc[nH]c3c2)n1` [Compound 138, 4-[(3,4-dichlorophenyl)amino]-6-[(1H-indol-6-yl)amino]pyridine-2-carbonitrile] showed an EC50 of 200 to 1000 nM. For `Cc1ccc(Nc2cc(C#N)nc(Nc3cc(Cl)c4cc[nH]c4c3)c2)cn1` [Compound 184, 6-[(4-chloro-1H-indol-6-yl)amino]-4-[(6-methylpyridin-3-yl)amino]pyridine-2-carbonitrile], the EC50 was 200 to 1000 nM. For `N#Cc1cc(Nc2cc(Cl)cc(OC(F)(F)F)c2)cc(Nc2cc(Cl)c3cc[nH]c3c2)n1` [Compound 167, 6-[(4-chloro-1H-indol-6-yl)amino]-4-{[3-chloro-5-(trifluoromethoxy)phenyl]amino}pyridine-2-carbonitrile], the EC50 was 200 to 1000 nM. `CC(C)CN1CCN(c2cc(C#N)nc(Nc3cc(Cl)c4cc[nH]c4c3)c2)CC1` [Compound 157, 6-[(4-chloro-1H-indol-6-yl)amino]-4-[4-(2-methylpropyl)piperazin-1-yl]pyridine-2-carbonitrile] gave an EC50 of 1000 to 5000 nM. With `CCc1ccc(Nc2cc(C#N)nc(Nc3cc(Cl)c4cc[nH]c4c3)c2)cn1` [Compound 174, 6-[(4-chloro-1H-indol-6-yl)amino]-4-[(6-ethylpyridin-3-yl)amino]pyridine-2-carbonitrile] the EC50 was 200 to 1000 nM. With `N#Cc1cc(Nc2cncc(F)c2)cc(Nc2cc(Cl)c3cc[nH]c3c2)n1` [Compound 158, 6-[(4-chloro-1H-indol-6-yl)amino]-4-[(5-fluoropyridin-3-yl)amino]pyridine-2-carbonitrile] the EC50 was 200 to 1000 nM. For `N#Cc1cc(Nc2ccc(C(F)(F)F)c(Cl)c2)cc(Nc2cc(Cl)c3cc[nH]c3c2)n1` [Compound 173, 6-[(4-chloro-1H-indol-6-yl)amino]-4-{[3-chloro-4-(trifluoromethyl)phenyl]amino}pyridine-2-carbonitrile], the EC50 was 200 to 1000 nM. With `N#Cc1cc(Nc2ccc3c(c2)CCC3)cc(Nc2cc(Cl)c3cc[nH]c3c2)n1` [Compound 188, 6-[(4-chloro-1H-indol-6-yl)amino]-4-[(2,3-dihydro-1H-inden-5-yl)amino]pyridine-2-carbonitrile] the EC50 was 40 to 200 nM. In the case of `N#Cc1cc(Nc2ccc(C(F)(F)F)c(Cl)c2)cc(Nc2ccc3cc[nH]c3c2)n1` [Compound 133, 4-{[3-chloro-4-(trifluoromethyl)phenyl]amino}-6-[(1H-indol-6-yl)amino]pyridine-2-carbonitrile], the EC50 is reported as 200 to 1000 nM. `N#Cc1cc(N2CCC(Oc3ccccc3)CC2)cc(Nc2cc(Cl)c3cc[nH]c3c2)n1` [Compound 155, 6-[(4-chloro-1H-indol-6-yl)amino]-4-(4-phenoxypiperidin-1-yl)pyridine-2-carbonitrile] was tested, and the EC50 was 200 to 1000 nM. Work on `N#Cc1cc(Nc2ccc(C(F)(F)F)c(F)c2)cc(Nc2ccc3cc[nH]c3c2)n1` [Compound 104, 4-{[3-fluoro-4-(trifluoromethyl)phenyl]amino}-6-[(1H-indol-6-yl)amino]pyridine-2-carbonitrile] yielded an EC50 of 200 to 1000 nM. Compound `Cc1nc2cc(Nc3cc(C#N)nc(Nc4cc(Cl)c5cc[nH]c5c4)c3)ccc2s1` [Compound 172, 6-[(4-chloro-1H-indol-6-yl)amino]-4-[(2-methyl-1,3-benzothiazol-5-yl)amino]pyridine-2-carbonitrile] has an EC50 of 200 to 1000 nM. In the case of `N#Cc1cc(Nc2ccc(Cl)c(Cl)c2)cc(Nc2cc(Cl)c3cc[nH]c3c2)n1` [Compound 154, 6-[(4-chloro-1H-indol-6-yl)amino]-4-[(3,4-dichlorophenyl)amino]pyridine-2-carbonitrile], the EC50 is reported as 40 to 200 nM. For `CC1(C)C(=O)Nc2cc(Nc3cc(C#N)nc(Nc4cc(Cl)c5cc[nH]c5c4)c3)ccc21` [Compound 178, 6-[(4-chloro-1H-indol-6-yl)amino]-4-[(3,3-dimethyl-2-oxo-2,3-dihydro-1H-indol-6-yl)amino]pyridine-2-carbonitrile], the EC50 was 200 to 1000 nM. With `N#Cc1cc(Nc2ccc3c(c2)OCCO3)cc(Nc2cc(Cl)c3cc[nH]c3c2)n1` [Compound 191, 6-[(4-chloro-1H-indol-6-yl)amino]-4-[(2,3-dihydro-1,4-benzodioxin-6-yl)amino]pyridine-2-carbonitrile] the EC50 was 1000 to 5000 nM. For `N#Cc1cc(Nc2ccc(OC(F)F)nc2)cc(Nc2cc(Cl)c3cc[nH]c3c2)n1` [Compound 182, 6-[(4-chloro-1H-indol-6-yl)amino]-4-{[6-(difluoromethoxy)pyridin-3-yl]amino}pyridine-2-carbonitrile], the EC50 was 40 to 200 nM. `N#Cc1cc(N2CCC(C(F)(F)F)CC2)cc(Nc2ccc3cc[nH]c3c2)n1` [Compound 118, 6-[(1H-indol-6-yl)amino]-4-[4-(trifluoromethyl)piperidin-1-yl]pyridine-2-carbonitrile] gave an EC50 of 1000 to 5000 nM. For `Cc1nn(C)c2ccc(Nc3cc(C#N)nc(Nc4cc(Cl)c5cc[nH]c5c4)c3)cc12` [Compound 176, 6-[(4-chloro-1H-indol-6-yl)amino]-4-[(1,3-dimethyl-1H-indazol-5-yl)amino]pyridine-2-carbonitrile], the EC50 was 200 to 1000 nM. For `CC(C)(C)c1cncc(Nc2cc(C#N)nc(Nc3ccc4cc[nH]c4c3)c2)c1` [Compound 115, 4-[(5-tert-butylpyridin-3-yl)amino]-6-[(1H-indol-6-yl)amino]pyridine-2-carbonitrile], the EC50 was 1000 to 5000 nM. `N#Cc1cc(Nc2cncc(Cl)c2)cc(Nc2ccc3cc[nH]c3c2)n1` [Compound 109, 4-[(5-chloropyridin-3-yl)amino]-6-[(1H-indol-6-yl)amino]pyridine-2-carbonitrile] gave an EC50 of 1000 to 5000 nM.

Same assay, conditions: 15 μM 2'3'cGAMP, 24 h, numeric bound
In the case of `CN1CCN(c2cc(C#N)nc(Nc3ccc4cc[nH]c4c3)c2)CC1` [Compound 121, 6-((1H-indol-6-yl)amino)-4-(4-methylpiperazin-1-yl)picolinonitrile], the EC50 is reported as over 30000 nM. Compound `N#Cc1cc(N2CCC(F)(F)CC2)cc(Nc2ccc3cc[nH]c3c2)n1` [Compound 106, 4-(4,4-difluoropiperidin-1-yl)-6-[(1H-indol-6-yl)amino]pyridine-2-carbonitrile] has an EC50 of over 30000 nM.
